In US10125134B2 (Mirati Therapeutics, Inc., priority 2016, dated 2018):
Where two headings read alike, the source gives them in different places.

Experiments:
[1] = molecular target: KRas G12C (Homo sapiens, UniProt P01116, C118S/C51S/C80L/G12C); assay: KRas G12C Modification Assay (LCMS detection of covalent adduct); type: binding
Procedure, shortened: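 Covalent modification was read by reverse-phase LC/MS of intact protein after compound exposure, each reaction stopped at its time point with 25 mM acetic acid. Unmodified-protein signal, taken as percent of total, was normalised to untreated protein and reported as POC.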

[2] = test system: NCI-H358 cells (express KRas G12C), Phospho-ERK; assay: Cellular inhibition of KRas G12C: Phospho-ERK in NCI-H358 cells; type: cell-based; conditions: Homo sapiens, pERK(Thr202/Tyr204) normalized with GAPDH, NCI-H358 cells, 3 hours, read-out: IC50
Procedure, shortened: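 IC50 derived by 4-parameter fit of GAPDH-normalized pERK(Thr202/Tyr204) signal, as percent of DMSO control. Signal came from in-cell immunodetection with infrared secondaries after 3 h compound exposure of KRas G12C NCI-H358 cells at 0.5% DMSO.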

[3] = normalized percent of control, tested at 5 μM concentration for 3 hours

Row | SMILES | POC [1, 3] | IC50 [2] | IC50 ([2]; NCI-H358, 3 h) | POC ([1]; 5 µM)
1 | C=CC(=O)N1CCN(c2nc(OCCCN3CCOCC3)nc3c2CCN(c2cc(O)cc4cccnc24)C3)CC1 [Example 205, 1-(4-(7-(6-hydroxyquinolin-8-yl)-2-(3-morpholinopropoxy)-5,6,7,8-tetrahydropyrido[3,4-d]pyrimidin-4-yl)piperazin-1-yl)prop-2-en-1-one] | C (“C”>50% POC) | > 1000 nM | – | –
2 | C=CC(=O)N1CCN(c2nc(OCCCN3CCN(C)CC3)nc3c2CCN(c2cc(O)cc4ccccc24)C3)CC1 [Example 82, 1-(4-(7-(3-hydroxynaphthalen-1-yl)-2-(3-(4-methylpiperazin-1-yl)propoxy)-5,6,7,8-tetrahydropyrido[3,4-d]pyrimidin-4-yl)piperazin-1-yl)prop-2-en-1-one] | C (“C”>50% POC) | – | 0.1 to 1000 nM | –
3 | C=CC(=O)N1CCN(c2nc(OC[C@@H]3C[C@@H](F)CN3C)nc3c2CCN(c2cccc4ccccc24)C3)CC1CC#N (stereo partly drawn) [Example 220, 2-(1-acryloyl-4-(2-(((2 S,4R)-4-fluoro-1-methylpyrrolidin-2-yl)methoxy)-7-(naphthalen-1-yl)-5,6,7,8-tetrahydropyrido[3,4-d]pyrimidin-4-yl)piperazin-2-yl)acetonitrile] | C (“C”>50% POC) | 0.1 to 1000 nM | – | –
4 | C=CC(=O)N1CCN(c2ncnc3c2CC(C)N(c2cc(O)cc4ccccc24)C3)CC1 (stereo not drawn) [Example 6, 1-(4-(7-(3-hydroxynaphthalen-1-yl)-6-methyl-5,6,7,8-tetrahydropyrido[3,4-d]pyrimidin-4-yl)piperazin-1-yl)prop-2-en-1-one] | B (“B”>25% POC−≤50% POC) | > 1000 nM | – | –
5 | C=CC(=O)N1CCN(c2nc(O[C@H](C)CN(C)C)nc3c2CCN(c2cc(O)cc(Cl)c2C(C)C)C3)CC1 [Example 76, (R)-1-(4-(7-(3-chloro-5-hydroxy-2-isopropylphenyl)-2-((1-(dimethylamino)propan-2-yl)oxy)-5,6,7,8-tetrahydropyrido[3,4-d]pyrimidin-4-yl)piperazin-1-yl)prop-2-en-1-one] | C (“C”>50% POC) | > 1000 nM | – | –
6 | C=CC(=O)N1CCN(c2nc(OC[C@@H]3CCCN3C)nc3c2CCN(c2c(C)ccc4[nH]ncc24)C3)CC1CC#N (stereo partly drawn) [Example 148, 2-[4-[7-(5-methyl-1H-indazol-4-yl)-2-[[(2S)-1-methylpyrrolidin-2-yl]methoxy]-6,8-dihydro-5H-pyrido[3,4-d]pyrimidin-4-yl]-1-prop-2-enoyl-piperazin-2-yl]acetonitrile] | C (“C”>50% POC) | 0.1 to 1000 nM | – | –
7 | C=CC(=O)N1CCN(c2nc(OC[C@@H]3CCCN3C)nc3c2CCN(c2c(C)ccc4[nH]ncc24)C3)CC1 [Example 155, (S)-1-(4-(7-(5-methyl-1H-indazol-4-yl)-2-((1-methylpyrrolidin-2-yl)methoxy)-5,6,7,8-tetrahydropyrido[3,4-d]pyrimidin-4-yl)piperazin-1-yl)prop-2-en-1-one] | – | 0.1 to 1000 nM | – | C (key: “A”≤25% POC; “B”>25% POC−≤50% POC; “C”>50% POC)
8 | C=CC(=O)N1CCN(c2nc(OC[C@@H]3CCCN3C)nc3c2CCN(c2cc(O)cc4ccccc24)C3)CC1CC#N (stereo partly drawn) [Example 182, 2-[4-[7-(3-hydroxy-1-naphthyl)-2-[[(2S)-1-methylpyrrolidin-2-yl]methoxy]-6,8-dihydro-5H-pyrido[3,4-d]pyrimidin-4-yl]-1-prop-2-enoyl-piperazin-2-yl]acetonitrile] | C (“C”>50% POC) | 0.1 to 1000 nM | – | –
9 | C=CC(=O)N1CC2(C1)CN(c1nc(OCCN(C)C)nc3c1CCN(c1cc(O)cc4ccccc14)C3)C2 [Example 16, 1-(6-(2-(2-(dimethylamino)ethoxy)-7-(3-hydroxynaphthalen-1-yl)-5,6,7,8-tetrahydropyrido[3,4-d]pyrimidin-4-yl)-2,6-diazaspiro[3.3]heptan-2-yl)prop-2-en-1-one] | C (“C”>50% POC) | – | > 1000 nM | –

More lines, main results first:

Row | POC [1, 3] | SMILES | IC50 [2] | IC50 ([2]; NCI-H358, 3 h) | POC ([1]; 5 µM)
10 | C (“C”>50% POC) | C=CC(=O)N1CCN(c2nc(OC[C@@H]3CCCN3C)nc3c2CCN(c2ccccc2CC(F)(F)F)C3)CC1CC#N (stereo partly drawn) [Example 240, 2-(1-acryloyl-4-(2-(((S)-1-methylpyrrolidin-2-yl)methoxy)-7-(2-(2,2,2-trifluoroethyl)phenyl)-5,6,7,8-tetrahydropyrido[3,4-d]pyrimidin-4-yl)piperazin-2-yl)acetonitrile] | – | > 1000 nM | –
11 | C (“C”>50% POC) | C=CC(=O)N1CCN(c2nc(OCCCN3C[C@@H]4C[C@H]3CO4)nc3c2CCN(c2cccc4cccc(Cl)c24)C3)C[C@@H]1CC#N [Example 365, 2-[(2S)-4-[7-(8-chloro-1-naphthyl)-2-[3-[(1S,4S)-2-oxa-5-azabicyclo[2.2.1]heptan-5-yl]propoxy]-6,8-dihydro-5H-pyrido[3,4-d]pyrimidin-4-yl]-1-prop-2-enoyl-piperazin-2-yl]acetonitrile] | – | 0.1 to 1000 nM | –
12 | C (“C”>50% POC) | C=CC(=O)N1CCN(c2nc(OC[C@@H]3CCCN3C)nc3c2CCN(c2cccc(Cl)c2C)C3)C[C@@H]1CC#N [Example 419, 2-((S)-1-acryloyl-4-(7-(3-chloro-2-methylphenyl)-2-(((S)-1-methylpyrrolidin-2-yl)methoxy)-5,6,7,8-tetrahydropyrido[3,4-d]pyrimidin-4-yl)piperazin-2-yl)acetonitrile] | – | 0.1 to 1000 nM | –
13 | C (“C”>50% POC) | C=CC(=O)N1CCN(c2nc(OC[C@@H]3CCCN3C)nc3c2CCN(c2cnccc2OC)C3)C[C@@H]1CC#N [Example 340, 2-((S)-1-acryloyl-4-(7-(4-methoxypyridin-3-yl)-2-(((S)-1-methylpyrrolidin-2-yl)methoxy)-5,6,7,8-tetrahydropyrido[3,4-d]pyrimidin-4-yl)piperazin-2-yl)acetonitrile] | – | > 1000 nM | –
14 | C (“C”>50% POC) | CN(C)C/C=C/C(=O)N1CCN(c2nc(OC[C@@H]3CCCN3C)nc3c2CCN(c2cccc(Cl)c2C(F)(F)F)C3)C[C@@H]1CC#N [Example 426, 2-((S)-4-(7-(3-chloro-2-(trifluoromethyl)phenyl)-2-(((S)-1-methylpyrrolidin-2-yl)methoxy)-5,6,7,8-tetrahydropyrido[3,4-d]pyrimidin-4-yl)-1-((E)-4-(dimethylamino)but-2-enoyl)piperazin-2-yl)acetonitrile] | – | 0.1 to 1000 nM | –
15 | C (“C”>50% POC) | C=CC(=O)N1CCN(c2nc(OCCN(C)C)nc3c2CCN(c2ccccc2C(F)(F)F)C3)CC1CC#N (stereo not drawn) [Example 279, 2-(1-acryloyl-4-(2-(2-(dimethylamino)ethoxy)-7-(2-(trifluoromethyl)phenyl)-5,6,7,8-tetrahydropyrido[3,4-d]pyrimidin-4-yl)piperazin-2-yl)acetonitrile] | – | 0.1 to 1000 nM | –
16 | C (“C”>50% POC) | Cc1cccc(N2CCc3c(nc(OC[C@@H]4CCCN4C)nc3N3CCN(C(=O)/C=C/CN(C)C)[C@@H](CC#N)C3)C2)c1C [Example 403, 2-((S)-1-((E)-4-(dimethylamino)but-2-enoyl)-4-(7-(2,3-dimethylphenyl)-2-(((S)-1-methylpyrrolidin-2-yl)methoxy)-5,6,7,8-tetrahydropyrido[3,4-d]pyrimidin-4-yl)piperazin-2-yl)acetonitrile] | – | 0.1 to 1000 nM | –
17 | C (“C”>50% POC) | C=CC(=O)N1CCN(c2nc(OC[C@@H]3COCCN3C)nc3c2CCN(c2cccc4ccccc24)C3)CC1CC#N (stereo partly drawn) [Example 272, 2-(1-acryloyl-4-(2-(((S)-4-methylmorpholin-3-yl)methoxy)-7-(naphthalen-1-yl)-5,6,7,8-tetrahydropyrido[3,4-d]pyrimidin-4-yl)piperazin-2-yl)acetonitrile] | – | 0.1 to 1000 nM | –
18 | C (“C”>50% POC) | C=CC(=O)N1CCN(c2nc(OC[C@H]3CN(C)C(C)(C)CO3)nc3c2CCN(c2cccc4ccccc24)C3)C[C@@H]1CC#N [Example 450, 2-((S)-1-Acryloyl-4-(7-(naphthalen-1-yl)-2-(((R)-4,5,5-trimethylmorpholin-2-yl)methoxy)-5,6,7,8-tetrahydropyrido[3,4-d]pyrimidin-4-yl)piperazin-2-yl)acetonitrile] | – | 0.1 to 1000 nM | –
19 | C (“C”>50% POC) | C=CC(=O)N1CCN(c2nc(OC[C@@H]3C[C@@H](F)CN3C)nc3c2CCN(c2cccc(C)c2C)C3)C[C@@H]1CC#N [Example 435, 2-((S)-1-acryloyl-4-(7-(2,3-dimethylphenyl)-2-(((2S,4R)-4-fluoro-1-methylpyrrolidin-2-yl)methoxy)-5,6,7,8-tetrahydropyrido[3,4-d]pyrimidin-4-yl)piperazin-2-yl)acetonitrile] | – | 0.1 to 1000 nM | –
20 | C (“C”>50% POC) | C[C@H](CN(C)C)Oc1nc2c(c(N3CCN(C(=O)/C=C/CN(C)C)CC3)n1)CCN(c1cc(O)cc3ccccc13)C2 [Example 122, (R,E)-4-(dimethylamino)-1-(4-(2-((1-(dimethylamino)propan-2-yl)oxy)-7-(3-hydroxynaphthalen-1-yl)-5,6,7,8-tetrahydropyrido[3,4-d]pyrimidin-4-yl)piperazin-1-yl)but-2-en-1-one bis-trifluoroacetate] | > 1000 nM | – | –
21 | C (“C”>50% POC) | C=CC(=O)N1CCN(c2nc(OCCCN3C[C@@H]4C[C@H]3CO4)nc3c2CCN(c2cccc4ccccc24)C3)CC1CC#N (stereo partly drawn) [Example 154, 2-[4-[7-(1-naphthyl)-2-[3-[(1S,4S)-2-oxa-5-azabicyclo[2.2.1]heptan-5-yl]propoxy]-6,8-dihydro-5H-pyrido[3,4-d]pyrimidin-4-yl]-1-prop-2-enoyl-piperazin-2-yl]acetonitrile] | – | 0.1 to 1000 nM | –
